The text below walks through data of ChEMBL document CHEMBL3769391, “Identification of a new cyathane diterpene that induces mitochondrial and autophagy-dependent apoptosis and shows a potent in vivo anti-colorectal cancer activity” (Eur J Med Chem, 2016).

Each structure is given as a SMILES string.

What all share (type): functional
Assay [1] concerns HCT-116. As to the kind of experiment: Induction of apoptosis in Bax deficient human HCT116 cells assessed as early apoptotic cells at […] after 24 hrs by Annexin V-FITC/propidium iodide staining based flow cytometry (reference value: 0.85%).
The test system of assay [2] is HCT-116. As to the kind of experiment: Induction of apoptosis in human HCT116 cells assessed as necrotic cells at […] after 24 hrs by Annexin V-FITC/propidium iodide staining based flow cytometry (reference value: 0.44%). For orientation: Flow cytometry measures light scatter and fluorescence of single cells or particles in a stream.
In assay [3] the test system is HCT-116. As to the kind of experiment: Induction of apoptosis in human HCT116 cells assessed as early apoptotic cells at […] after 24 hrs by Annexin V-FITC/propidium iodide staining based flow cytometry (reference value: 2.2%).
The test system of assay [4] is HCT-116. As to the kind of experiment: Induction of apoptosis in human HCT116 cells assessed as late apoptotic cells at […] after 24 hrs by Annexin V-FITC/propidium iodide staining based flow cytometry (reference value: 3.73%).
Assay [5] concerns HCT-116. As to the kind of experiment: Induction of apoptosis in human HCT116 cells assessed as viable cells at […] after 24 hrs by Annexin V-FITC/propidium iodide staining based flow cytometry (reference value: 93.64%). Particulars: HCT-116, 24 h, read-out: Activity.
In assay [6] the test system is HCT-116. As to the kind of experiment: Induction of apoptosis in Bax deficient human HCT116 cells assessed as late apoptotic cells at […] after 24 hrs by Annexin V-FITC/propidium iodide staining based flow cytometry (reference value: 1.56%).
Assay [7] relates to HCT-116. As to the kind of experiment: Induction of apoptosis in human HCT116 cells assessed as late apoptotic cells at 10 uM after 12 hrs by Annexin V-FITC/propidium iodide staining based flow cytometry (reference value: 3.37%).
The subject of assay [8] is HCT-116. As to the kind of experiment: Induction of apoptosis in human HCT116 cells assessed as early apoptotic cells at 10 uM after 12 hrs by Annexin V-FITC/propidium iodide staining based flow cytometry (reference value: 1.13%).

As for `CC(=O)N[C@@H](CS)C(=O)O` [ACETYLCYSTEINE], the Activity in assay [1] is 1.21%; in assay [2] it was 0.7%; in assay [3], 1.86%; in assay [4], 5.62%; in assay [6], 1.75%. Also, the viability in assay [5] was 91.8%.
For the compound `CO[C@H]1C(C=O)=CC[C@@H]2C3=C(C(C)C)CC[C@]3(C)CC[C@@]2(C)[C@H]1O`, the Activity in assay [7] amounted to 3.68%; in assay [8] it was 3.83%.
`OC(CS)C(O)CS` (racemic) [DL-DITHIOTHREITOL]: the Activity in assay [1] amounted to 2.99%; in assay [2] it was 0.21%; in assay [3], 3.12%; in assay [4], 8.67%; in assay [6], 3.5%. Further, the viability in assay [5] was 88%.
